Experimental data published in US12679878B2, “CRF2 receptor agonists and their use in therapy” (SANOFI, priority 2020, dated 2026).
Starred links: 1 amine or outer side, 2 acyl side, 3 side chain; linkers in the order of their positions; H or OH if unused. Non-standard residues stand in square brackets, D forms with d. Residues, ends and D or L forms follow the SMILES beside them. Groups on a side chain read outwards from the residue. *: point of attachment. C20 diacid = O=C(O)CCCCCCCCCCCCCCCCCCC(=O)*; C18 diacid = O=C(O)CCCCCCCCCCCCCCCCC(=O)*; γGlu = O=C(O)[C@H](CCC(=O)[*:2])N[*:1]; AEEA = NCCOCCOCC(=O)O; Aib = CC(C)(N)C(=O)O

molecular target: T1, human CRF2α receptor (Homo sapiens, UniProt Q13324); experiment: cAMP agonism at human CRF2 α receptor in TeloHEAC cells (Example 7); assay type: cell-based; settings: cAMP HTRF, TeloHEAC cells stably expressing human CRF2 α, 0% HSA; read-out: EC50 [nM], 0% HSA
T1 construct: expressed in transfected cells; host or cells: TeloHEAC
T1 sequence (Q13324 1-411): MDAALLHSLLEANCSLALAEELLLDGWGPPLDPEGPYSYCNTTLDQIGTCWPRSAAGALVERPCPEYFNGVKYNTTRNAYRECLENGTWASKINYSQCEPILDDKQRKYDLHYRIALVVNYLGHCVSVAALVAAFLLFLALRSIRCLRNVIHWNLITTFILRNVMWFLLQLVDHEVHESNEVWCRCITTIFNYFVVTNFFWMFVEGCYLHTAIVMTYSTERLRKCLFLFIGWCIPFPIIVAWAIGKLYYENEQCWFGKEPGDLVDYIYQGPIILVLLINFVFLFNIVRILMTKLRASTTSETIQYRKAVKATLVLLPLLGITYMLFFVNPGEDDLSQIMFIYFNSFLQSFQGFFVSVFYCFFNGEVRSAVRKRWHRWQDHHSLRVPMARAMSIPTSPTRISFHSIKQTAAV
In short: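 Percent activation was referenced to 1000 nM UCN2 (100%), and EC50 values taken as concentrations giving half of maximal response. The read-out was a homogeneous time-resolved fluorescence cAMP kit, fluorescence ratio 665/620 nm. Thawed cells (2000/well) saw compound for 30 min at RT in buffer with 2 mM IBMX and 0%/0.1% HSA.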

EC50 [nM]	Compound
17.2	CC[C@H](C)[C@H](N)C(=O)N[C@H](C(=O)N[C@@H](CC(C)C)C(=O)N[C@@H](CO)C(=O)N[C@@H](CC(C)C)C(=O)N[C@@H](CC(=O)O)C(=O)N[C@H](C(=O)N1CCC[C@H]1C(=O)N[C@H](C(=O)N[C@@H](CCCCN)C(=O)N[C@@H](CC(C)C)C(=O)N[C@@H](CCCCNC(=O)COCCOCCNC(=O)COCCOCCNC(=O)CC[C@H](NC(=O)CCCCCCCCCCCCCCCCC(=O)O)C(=O)O)C(=O)N[C@@H](CCC(N)=O)C(=O)N[C@H](C(=O)N[C@@H](CC(C)C)C(=O)N[C@@H](CC(C)C)C(=O)N[C@@H](CCCCN)C(=O)N[C@@H](CCC(N)=O)C(=O)N[C@@H](CCC(=O)O)C(=O)N[C@@H](CCCNC(=N)N)C(=O)N[C@@H](CCC(N)=O)C(=O)N[C@@H](CCCNC(=N)N)C(=O)NC(C)(C)C(=O)N[C@@H](CCC(=O)O)C(=O)N[C@@H](CCCNC(=N)N)C(=O)N[C@@H](CCC(N)=O)C(=O)N[C@@H](CCC(N)=O)C(=O)N[C@@H](C)C(=O)N[C@@H](CCC(=O)O)C(=O)N[C@H](C(=O)N[C@@H](CC(N)=O)C(=O)N[C@H](C(=O)N[C@@H](CCCNC(=N)N)C(=O)N[C@H](C(=O)N[C@@H](CC(C)C)C(=O)N[C@@H](CCC(=O)O)C(=O)N[C@@H](CCCNC(=N)N)C(=O)N[C@H](C(N)=O)C(C)C)[C@@H](C)CC)C(C)C)[C@@H](C)O)[C@@H](C)CC)[C@@H](C)O)C(C)C)C(C)C [compound 50] (H-IVLSLDVPTKLK([AEEA-AEEA-γGlu-C18 diacid])QILLKQERQR[Aib]ERQQAETNVRILERV-NH2; N-terminus assumed)
48.5	CC[C@H](C)[C@H](NC(=O)[C@H](CCC(N)=O)NC(=O)[C@H](CCCCNC(=O)COCCOCCNC(=O)COCCOCCNC(=O)CC[C@H](NC(=O)CCCCCCCCCCCCCCCCC(=O)O)C(=O)O)NC(=O)[C@@H](NC(=O)[C@H](CCCCN)NC(=O)[C@@H](NC(=O)[C@@H]1CCCN1C(=O)[C@@H](NC(=O)[C@H](CC(=O)O)NC(=O)[C@H](CC(C)C)NC(=O)[C@H](CO)NC(=O)[C@H](CC(C)C)NC(=O)[C@@H](NC(=O)[C@@H](N)Cc1ccccc1)[C@@H](C)O)C(C)C)[C@@H](C)O)[C@@H](C)CC)C(=O)N[C@@H](CC(C)C)C(=O)N[C@@H](CC(C)C)C(=O)N[C@@H](CCCCN)C(=O)N[C@@H](CCC(N)=O)C(=O)N[C@@H](CCC(N)=O)C(=O)N[C@@H](CCCCN)C(=O)N[C@@H](CCC(N)=O)C(=O)N[C@@H](CCCCN)C(=O)N[C@@H](CCCCN)C(=O)N[C@@H](CCC(=O)O)C(=O)N[C@@H](CCCNC(=N)N)C(=O)N[C@@H](CCC(N)=O)C(=O)N[C@@H](CCCCN)C(=O)N[C@@H](C)C(=O)N[C@@H](CCC(=O)O)C(=O)N[C@H](C(=O)N[C@@H](CC(N)=O)C(=O)N[C@H](C(=O)N[C@@H](CCC(N)=O)C(=O)N[C@@H](CC(C)C)C(=O)N[C@@H](CC(C)C)C(=O)N[C@@H](CCC(=O)O)C(=O)N[C@@H](CCCNC(=N)N)C(=O)N[C@H](C(N)=O)C(C)C)C(C)C)[C@@H](C)O [compound 55] (H-FTLSLDVPTKIK([AEEA-AEEA-γGlu-C18 diacid])QILLKQQKQKKERQKAETNVQLLERV-NH2; N-terminus assumed)
22.9	CC[C@H](C)[C@H](NC(=O)[C@H](CCC(N)=O)NC(=O)[C@H](CCCCNC(=O)COCCOCCNC(=O)COCCOCCNC(=O)CC[C@H](NC(=O)CCCCCCCCCCCCCCCCC(=O)O)C(=O)O)NC(=O)[C@H](CC(C)C)NC(=O)CNC(=O)[C@@H](NC(=O)[C@@H]1CCCN1C(=O)[C@@H](NC(=O)[C@H](CC(=O)O)NC(=O)[C@H](CC(C)C)NC(=O)[C@H](CO)NC(=O)[C@H](CC(C)C)NC(=O)[C@@H](NC(=O)[C@@H](N)Cc1ccccc1)[C@@H](C)O)C(C)C)[C@@H](C)CC)C(=O)N[C@@H](CC(C)C)C(=O)N[C@@H](CC(C)C)C(=O)N[C@@H](CCCCN)C(=O)N[C@@H](CCC(N)=O)C(=O)N[C@@H](CCC(N)=O)C(=O)N[C@@H](CCCCN)C(=O)N[C@@H](CCC(N)=O)C(=O)N[C@@H](CCCCN)C(=O)N[C@@H](CCCCN)C(=O)N[C@@H](CCC(=O)O)C(=O)N[C@@H](CCCNC(=N)N)C(=O)N[C@@H](CCC(N)=O)C(=O)N[C@@H](CCC(N)=O)C(=O)N[C@@H](C)C(=O)N[C@@H](CCC(=O)O)C(=O)N[C@H](C(=O)N[C@@H](CC(N)=O)C(=O)N[C@H](C(=O)N[C@@H](CCC(N)=O)C(=O)N[C@@H](CC(C)C)C(=O)N[C@@H](CC(C)C)C(=O)N[C@@H](CCC(=O)O)C(=O)N[C@@H](CCCNC(=N)N)C(=O)N[C@H](C(N)=O)C(C)C)C(C)C)[C@@H](C)O [compound 56] (H-FTLSLDVPIGLK([AEEA-AEEA-γGlu-C18 diacid])QILLKQQKQKKERQQAETNVQLLERV-NH2)
38.8	CC[C@H](C)[C@H](NC(=O)[C@H](CCC(N)=O)NC(=O)[C@H](CCCCNC(=O)COCCOCCNC(=O)COCCOCCNC(=O)CC[C@H](NC(=O)CCCCCCCCCCCCCCCCC(=O)O)C(=O)O)NC(=O)[C@H](CC(C)C)NC(=O)CNC(=O)[C@@H](NC(=O)[C@@H]1CCCN1C(=O)[C@@H](NC(=O)[C@H](CC(=O)O)NC(=O)[C@H](CC(C)C)NC(=O)[C@H](CO)NC(=O)[C@H](CC(C)C)NC(=O)[C@@H](NC(=O)[C@@H](N)Cc1ccccc1)[C@@H](C)O)C(C)C)[C@@H](C)CC)C(=O)N[C@@H](CC(C)C)C(=O)N[C@@H](CC(C)C)C(=O)N[C@@H](CCCCN)C(=O)N[C@@H](CCC(N)=O)C(=O)N[C@@H](CCC(N)=O)C(=O)N[C@@H](CCCCN)C(=O)N[C@@H](CCC(N)=O)C(=O)N[C@@H](CCCCN)C(=O)N[C@@H](CCCCN)C(=O)N[C@@H](CCC(=O)O)C(=O)N[C@@H](CCCNC(=N)N)C(=O)N[C@@H](CCC(N)=O)C(=O)N[C@@H](CCCCN)C(=O)N[C@@H](C)C(=O)N[C@@H](CCC(=O)O)C(=O)N[C@H](C(=O)N[C@@H](CC(N)=O)C(=O)N[C@H](C(=O)N[C@@H](CCC(N)=O)C(=O)N[C@@H](CC(C)C)C(=O)N[C@@H](CC(C)C)C(=O)N[C@@H](CCC(=O)O)C(=O)N[C@@H](CCCNC(=N)N)C(=O)N[C@H](C(N)=O)C(C)C)C(C)C)[C@@H](C)O [compound 57] (H-FTLSLDVPIGLK([AEEA-AEEA-γGlu-C18 diacid])QILLKQQKQKKERQKAETNVQLLERV-NH2; N-terminus assumed)
13.2	CC[C@H](C)[C@H](NC(=O)[C@H](CCC(N)=O)NC(=O)[C@H](CCCCNC(=O)COCCOCCNC(=O)COCCOCCNC(=O)CC[C@H](NC(=O)CCCCCCCCCCCCCCCCCCC(=O)O)C(=O)O)NC(=O)[C@@H](NC(=O)[C@H](CCCCN)NC(=O)[C@@H](NC(=O)[C@@H]1CCCN1C(=O)[C@@H](NC(=O)[C@H](CC(=O)O)NC(=O)[C@H](CC(C)C)NC(=O)[C@H](CO)NC(=O)[C@H](CC(C)C)NC(=O)[C@@H](NC(=O)[C@@H](N)Cc1ccccc1)[C@@H](C)O)C(C)C)[C@@H](C)O)[C@@H](C)CC)C(=O)N[C@@H](CC(C)C)C(=O)N[C@@H](CC(C)C)C(=O)N[C@@H](CCCCN)C(=O)N[C@@H](CCC(N)=O)C(=O)N[C@@H](CCC(N)=O)C(=O)N[C@@H](CCCCN)C(=O)N[C@@H](CCC(N)=O)C(=O)N[C@@H](CCCCN)C(=O)N[C@@H](CCCCN)C(=O)N[C@@H](CCC(=O)O)C(=O)N[C@@H](CCCNC(=N)N)C(=O)N[C@@H](CCC(N)=O)C(=O)N[C@@H](CCCCN)C(=O)N[C@@H](C)C(=O)N[C@@H](CCC(=O)O)C(=O)N[C@H](C(=O)N[C@@H](CC(N)=O)C(=O)N[C@H](C(=O)N[C@@H](CCC(N)=O)C(=O)N[C@@H](CC(C)C)C(=O)N[C@@H](CC(C)C)C(=O)N[C@@H](CCC(=O)O)C(=O)N[C@@H](CCCNC(=N)N)C(=O)N[C@H](C(N)=O)C(C)C)C(C)C)[C@@H](C)O [compound 64] (H-FTLSLDVPTKIK([AEEA-AEEA-γGlu-C20 diacid])QILLKQQKQKKERQKAETNVQLLERV-NH2)
9.31	CC[C@H](C)[C@H](NC(=O)[C@H](CCC(N)=O)NC(=O)[C@H](CCCCNC(=O)COCCOCCNC(=O)COCCOCCNC(=O)CC[C@H](NC(=O)CCCCCCCCCCCCCCCCCCC(=O)O)C(=O)O)NC(=O)[C@H](CC(C)C)NC(=O)CNC(=O)[C@@H](NC(=O)[C@@H]1CCCN1C(=O)[C@@H](NC(=O)[C@H](CC(=O)O)NC(=O)[C@H](CC(C)C)NC(=O)[C@H](CO)NC(=O)[C@H](CC(C)C)NC(=O)[C@@H](NC(=O)[C@@H](N)Cc1ccccc1)[C@@H](C)O)C(C)C)[C@@H](C)CC)C(=O)N[C@@H](CC(C)C)C(=O)N[C@@H](CC(C)C)C(=O)N[C@@H](CCCCN)C(=O)N[C@@H](CCC(N)=O)C(=O)N[C@@H](CCC(N)=O)C(=O)N[C@@H](CCCCN)C(=O)N[C@@H](CCC(N)=O)C(=O)N[C@@H](CCCCN)C(=O)N[C@@H](CCCCN)C(=O)N[C@@H](CCC(=O)O)C(=O)N[C@@H](CCCNC(=N)N)C(=O)N[C@@H](CCC(N)=O)C(=O)N[C@@H](CCC(N)=O)C(=O)N[C@@H](C)C(=O)N[C@@H](CCC(=O)O)C(=O)N[C@H](C(=O)N[C@@H](CC(N)=O)C(=O)N[C@H](C(=O)N[C@@H](CCC(N)=O)C(=O)N[C@@H](CC(C)C)C(=O)N[C@@H](CC(C)C)C(=O)N[C@@H](CCC(=O)O)C(=O)N[C@@H](CCCNC(=N)N)C(=O)N[C@H](C(N)=O)C(C)C)C(C)C)[C@@H](C)O [compound 65] (H-FTLSLDVPIGLK([AEEA-AEEA-γGlu-C20 diacid])QILLKQQKQKKERQQAETNVQLLERV-NH2)
